According to patent publication US20230302042A1, “METHODS FOR THE PREVENTION OF CHOLESTEROL CRYSTAL EMBOLIZATION WITH CYCLODEXTRINS” (Beren Therapeutics P.B.C., priority 2020, published 2023):

How the values were obtained:
[1] = human subject; single-ascending intravenous doses 500, 750, 1,000, 1,000 mg/kg every 4 weeks; plasma pre-dose, post-dose, 1 hour and 24 hours post-dose; FIG. 1A
Procedure: A human subject was treated with 2-hydroxypropyl-beta-cyclodextrin with single-ascending doses administered intravenously every 4 weeks according to Table 1 below. […] For each dose, whole blood was collected pre-dose, post-dose (line flush), 1 hour post-dose, and 24 hours post-dose. Plasma was separated from the whole blood and subjected to a cholesterol crystal dissolution capacity (CCDC) assay using techniques similar to those described in the literature. The CCDC assay measures the ability of a sample to dissolve cholesterol crystals.

[2] = pre-dose human blood plasma incubated ex vivo with the cyclodextrin; FIG. 1B
Procedure: For each dose, whole blood was collected pre-dose, post-dose (line flush), 1 hour post-dose, and 24 hours post-dose. Plasma was separated from the whole blood and subjected to a cholesterol crystal dissolution capacity (CCDC) assay using techniques similar to those described in the literature. The CCDC assay measures the ability of a sample to dissolve cholesterol crystals.
Blood plasma pre-dose was also incubated ex vivo with 2-hydroxypropyl-beta-cyclodextrin and the ability of the plasma to dissolve cholesterol crystals was measured.

[3] = human subject; intravenous doses 500-1,000 mg/kg every 4 weeks; FIGS. 2A-2C
Procedure: (§1) A human subject was treated with 2-hydroxypropyl-beta-cyclodextrin with single-ascending doses administered intravenously every 4 weeks according to Table 1 below.
(§2) In this Example, a human subject was treated with 2-hydroxypropyl-beta-cyclodextrin according to Example 1, and plasma levels of 24S-hydroxycholesterol and 27-hydroxycholesterol were measured. […] 27-hydroxycholesterol is an endogenous LXR ligand leading to a downstream anti-inflammatory gene signature which may, in some embodiments, address the detrimental inflammatory response via NLRP3 inflammasome effects of cholesterol crystal embolization. The elevated 27-hydroxycholesterol is also a cellular marker of macrophage activation and increased activity for cholesterol crystal phagocytosis and clearance.

24S-hydroxycholesterol = conditions: human subject; intravenous doses 500-1,000 mg/kg every 4 weeks; FIGS. 2A-2C
Procedure: as §1, §2

27-hydroxycholesterol = conditions: human subject; intravenous doses 500-1,000 mg/kg every 4 weeks; FIGS. 2A-2C
Procedure: as §1, §2

ABCA1 = conditions: human subject; intravenous doses 500-1,000 mg/kg every 4 weeks; peripheral blood; FIGS. 3A-3D
Procedure: as §1
(§3) In this Example, a human subject was treated with 2-hydroxypropyl-beta-cyclodextrin according to Example 1, and mRNA levels of the LXR transcription factor-regulated genes, ABCA1 and ABCG1, were measured. […] ABCA1 and ABCG1 are important cholesterol transporters and are responsible for cholesterol efflux from cells, loading of HDL particles for reverse cholesterol transport (RCT), and excretion via the hepatic pathway, to potentially reduce the cholesterol and cholesterol crystal emboli released into the vasculature and stabilize ruptured atherosclerotic plaque.

ABCG1 = conditions: human subject; intravenous doses 500-1,000 mg/kg every 4 weeks; peripheral blood; FIGS. 3A-3D
Procedure: as §1, §3

## 2-hydroxypropyl-beta-cyclodextrin
[1]
  capability of blood plasma to dissolve cholesterol crystals (CCDC) after treatment: increased capability
[2]
  capacity of plasma to dissolve cholesterol crystals after ex vivo incubation: increased capacity
[3]
  total cholesterol levels in plasma: remained stable
24S-hydroxycholesterol
  plasma level of 24S-hydroxycholesterol: increased plasma levels
27-hydroxycholesterol
  plasma level of 27-hydroxycholesterol: increased plasma levels
ABCA1
  mRNA level of ABCA1: increased mRNA levels
ABCG1
  mRNA level of ABCG1: increased mRNA levels
